Experimental data from US20240368203A1, “DEGRADATION OF (EGFR) BY CONJUGATION OF EGFR INHIBITORS WITH E3 LIGASE LIGAND AND METHODS OF USE” (BeiGene, Ltd., priority 2022, published 2024).

Experiments:
[1] = test system: EGFR-Del19/T790M/C797S; assay: EGFR degradation HTRF assay in H1975-clone #28 cells; format: cell-based; details: H1975-clone #28 (Del19/T790M/C797S) cells, 16 h treatment; for DC50: IC50 (DC50), read-out: DC50(nM) H1975 # 28 DTC; for Dmax (%) H1975 # 28 DTC: maximum percentage of inhibition (degradation)
Protocol: (§1) H1975-clone #28(Del19/T790M/C797S) and H1975-clone #25(L858R/T790M/C797S). EGFR-Del19/T790M/C797S and EGFR-L858R/T790M/C797S were stably expressed in H1975 cell lines by lentivirus-mediated over-expression, respectively. The EGFR over-expressed cells then underwent knockout, in which the EGFR targeting sgRNA was designed to only target the endogenous EGFR copies and preserve the exogenous EGFR copies. Followed by knockout, the edited H1975 cells were seeded in 96 well plates at the concentration of […], cultured for about 2 weeks to allow single clones formation. The formed clones were screened by DNA sequencing and whole exon sequencing analysis for the desired edition.
(§2) H1975-clone #28, and H1975-clone #25 were finally confirmed as homozygous Del19/T790M/C797S EGFR, and L858R/T790M/C797S EGFR clones, respectively.
(§3) H1975-#25 and H1975-#28 cells are treated with compounds diluted in 0.2% DMSO cell culture medium on day 2, incubate for 16 h, 37° C., 5% CO2. the final concentration of compounds in all assay is start with 10 uM, 5-fold dilution, total 8 doses were included.
(§4) After 16 h treatment, add HTRF lysis buffer to each well; seal the plate and incubate 1 hour at room temperature on a plate shaker; Once the cells are lysed, 16 μL of cell lysate are transferred to a PE 384-well HTRF detection plate; 4 μL of pre-mixed HTRF antibodies are added to each well; Cover the plate with a plate sealer, spin 1000 rpm for 1 min, Incubate overnight at room temperature; Read on BMG PheraStar with HTRF protocol (337 nm-665 nm-620 nm).
(§5) The inhibition (degradation) percentage of the compound was calculated by the following equation:
(§6) Inhibition percentage of Compound=100−100×(Signal−low control)/(High control−low control),
(§7) The IC50 (DC50) value of a compound can be obtained by fitting the following equation
(§8) Wherein, X and Y are known values, and IC50, Hillslope, Top and Bottom are the parameters obtained by fitting with software. Y is the inhibition percentage (calculated from the equation), X is the concentration of the compound; IC50 is the concentration of the compound when the 50% inhibition is reached. The smaller the IC50 value is, the stronger the inhibitory ability of the compound is. Vice versa, the higher the IC50 value is, the weaker the ability the inhibitory ability of the compound is; Hillslope represents the slope of the fitted curve, generally around 1 *; Bottom represents the minimum value of the curve obtained by data fitting, which is generally 0%±20%; Top represents the maximum value of the curve obtained by data fitting, which is generally 100%±20%. The experimental data were fitted by calculating and analyzing with Dotmatics data analysis software.

[2] = molecular target: T1, EGFR-L858R/T790M/C797S (Homo sapiens, UniProt P00533, C797S/L858R/T790M); assay: EGFR degradation HTRF assay in H1975-clone #25 cells; format: cell-based; details: 16 h treatment; for DC50: H1975-clone #25 (L858R/T790M/C797S) cells, IC50 (DC50), read-out: DC50(nM) H1975 # 25-LTC; for Dmax: NCI-H1975, H1975-clone #25 (L858R/T790M/C797S) cells, maximum percentage of inhibition (degradation), read-out: Dmax (%) H1975 # 25-LTC
T1 construct: expressed in transfected cells; host or cells: H1975-clone #25 (lentiviral over-expression, endogenous EGFR knocked out)
T1 sequence (P00533 25-1210 T790M/C797S/L858R): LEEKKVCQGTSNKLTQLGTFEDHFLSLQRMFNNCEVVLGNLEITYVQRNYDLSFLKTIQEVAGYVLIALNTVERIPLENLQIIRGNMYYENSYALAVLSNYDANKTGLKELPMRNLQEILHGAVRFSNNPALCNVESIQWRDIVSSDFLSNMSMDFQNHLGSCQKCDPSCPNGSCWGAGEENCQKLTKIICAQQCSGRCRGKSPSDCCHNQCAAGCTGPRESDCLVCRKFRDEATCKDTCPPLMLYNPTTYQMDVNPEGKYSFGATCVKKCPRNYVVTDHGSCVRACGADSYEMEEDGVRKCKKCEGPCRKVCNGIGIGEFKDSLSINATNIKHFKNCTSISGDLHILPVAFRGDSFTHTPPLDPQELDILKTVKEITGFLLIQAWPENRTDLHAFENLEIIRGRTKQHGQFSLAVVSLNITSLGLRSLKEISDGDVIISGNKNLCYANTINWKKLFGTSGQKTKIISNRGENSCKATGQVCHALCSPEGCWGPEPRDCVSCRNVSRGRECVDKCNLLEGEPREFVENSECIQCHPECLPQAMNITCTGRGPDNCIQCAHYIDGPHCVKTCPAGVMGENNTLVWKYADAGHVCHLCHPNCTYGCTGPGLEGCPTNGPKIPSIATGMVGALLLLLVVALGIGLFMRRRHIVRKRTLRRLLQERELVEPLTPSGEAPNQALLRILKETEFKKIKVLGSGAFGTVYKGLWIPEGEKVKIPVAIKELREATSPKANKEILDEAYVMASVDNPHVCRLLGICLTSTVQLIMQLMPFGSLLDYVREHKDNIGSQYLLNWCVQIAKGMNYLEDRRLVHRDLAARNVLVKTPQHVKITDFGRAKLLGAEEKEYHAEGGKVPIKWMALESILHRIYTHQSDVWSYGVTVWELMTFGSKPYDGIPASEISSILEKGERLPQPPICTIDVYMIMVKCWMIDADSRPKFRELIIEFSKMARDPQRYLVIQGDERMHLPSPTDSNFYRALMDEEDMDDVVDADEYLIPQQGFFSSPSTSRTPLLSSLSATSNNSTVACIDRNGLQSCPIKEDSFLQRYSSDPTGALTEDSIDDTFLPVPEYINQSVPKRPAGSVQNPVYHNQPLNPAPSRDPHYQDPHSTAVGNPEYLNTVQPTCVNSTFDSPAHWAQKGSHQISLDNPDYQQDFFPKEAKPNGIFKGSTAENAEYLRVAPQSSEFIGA
Protocol: as §1, §2, §3, §4, §5, §6, §7, §8

SMILES | DC50 [1] [nM] | DC50 [2] [nM] | Dmax [2] [%] | Dmax (%) H1975 # 28 DTC [1] [%]
CCc1cc(Nc2ncc(Br)c(Nc3ccc4nc(C)c(F)cc4c3P(C)(C)=O)n2)c(OC)cc1N1CCC2(CCN(CCCc3cccc4c3n(C)c(=O)n4C3CCC(=O)NC3=O)CC2)CC1 (stereo not drawn) [Example 28, 3-(4-(3-(9-(4-((5-bromo-4-((5-(dimethylphosphoryl)-3-fluoro-2-methylquinolin-6-yl)amino)pyrimidin-2-yl)amino)-2-ethyl-5-methoxyphenyl)-3,9-diazaspiro[5.5]undecan-3-yl)propyl)-3-methyl-2-oxo-2,3-dihydro-1H-benzo[d]imidazol-1-yl)piperidine-2,6-dione] | 1 | 2.2 | 87 | 80
CCc1ncc2c(P(C)(C)=O)c(Nc3nc(Nc4cc(CC)c(N5CCC(N6CC7(CCN(c8cccc9c8n(C)c(=O)n9C8CCC(=O)NC8=O)CC7)C6)CC5)cc4OC)ncc3Br)ccc2n1 (stereo not drawn) [Example 31, 3-(4-(2-(1-(4-((5-bromo-4-((5-(dimethylphosphoryl)-2-ethylquinazolin-6-yl)amino)pyrimidin-2-yl)amino)-2-ethyl-5-methoxyphenyl)piperidin-4-yl)-2,7-diazaspiro[3.5]nonan-7-yl)-3-methyl-2-oxo-2,3-dihydro-1H-benzol[d]imidazol-1-yl)piperidine-2,6-dione] | 0.8 | 0.6 | 86 | 80
CCc1ncc2c(P(C)(C)=O)c(Nc3nc(Nc4cc(CC)c(N5CCC(N6CCN([C@H]7CCN(c8cc(F)c([C@H]9CCC(=O)NC9=O)c(F)c8)C7)CC6)CC5)cc4OC)ncc3Br)ccc2n1 (single isomer, unassigned) [Example 9] | 1.3 | 3.8 | 86 | 86
CCc1ncc2c(P(C)(C)=O)c(Nc3nc(Nc4cc(CC)c(N5CCC(N6CCN(CC7CCN(c8ccc9c(c8)CN(C8CCC(=O)NC8=O)C9=O)CC7)CC6)CC5)cc4OC)ncc3Br)ccc2n1 (stereo not drawn) [Example 35, 3-(5-(4-((4-(1-(4-((5-bromo-4-((5-(dimethylphosphoryl)-2-ethylquinazolin-6-yl)amino)pyrimidin-2-yl)amino)-2-ethyl-5-methoxyphenyl)piperidin-4-yl)piperazin-1-yl)methyl)piperidin-1-yl)-1-oxoisoindolin-2-yl)piperidine-2,6-dione] | 1.2 | 1.3 | 83 | 79
CCc1ccc2c(P(C)(C)=O)c(Nc3nc(Nc4cc(CC)c(N5CCC(N6CCC(N7CC(c8cc(F)c([C@H]9CCC(=O)NC9=O)c(F)c8)C7)CC6)CC5)cc4OC)ncc3Br)ccc2n1 (single isomer, unassigned) [Example 30] | 13.3 | 10.8 | 89 | 87

More lines, main results first:

DC50 [1] [nM] | DC50 [2] [nM] | Dmax [2] [%] | SMILES | Dmax (%) H1975 # 28 DTC [1] [%]
3.1 | 9 | 89 | CCc1cc(Nc2ncc(Br)c(Nc3ccc4nc(C)c(F)cc4c3P(C)(C)=O)n2)c(OC)cc1N1CCC2(CCN(CCc3cc(F)c([C@H]4CCC(=O)NC4=O)c(F)c3)CC2)CC1 [Example 6, (R)-3-(4-(2-(9-(4-((5-bromo-4-((5-(dimethylphosphoryl)-3-fluoro-2-methylquinolin-6-yl)amino)pyrimidin-2-yl)amino)-2-ethyl-5-methoxyphenyl)-3,9-diazaspiro[5.5]undecan-3-yl)ethyl)-2,6-difluorophenyl)piperidine-2,6-dione] | 80
6.6 | 3.3 | 95 | CCc1cc(Nc2ncc(Br)c(Nc3ccc4nc(C)c(F)cc4c3P(C)(C)=O)n2)c(OC)cc1N1CCC2(CCN(CC3CCN(c4cc(F)c([C@H]5CCC(=O)NC5=O)c(F)c4)CC3)CC2)CC1 [Example 79, (R)-3-(4-(4-((9-(4-((5-bromo-4-((5-(dimethylphosphoryl)-3-fluoro-2-methylquinolin-6-yl)amino)pyrimidin-2-yl)amino)-2-ethyl-5-methoxyphenyl)-3,9-diazaspiro[5.5]undecan-3-yl)methyl)piperidin-1-yl)-2,6-difluorophenyl)piperidine-2,6-dione] | 90
2.9 | 2.5 | 92 | CCc1cc(Nc2ncc(Cl)c(Nc3ccc4nc(C)c(F)cc4c3P(C)(C)=O)n2)c(OC)cc1N1CCC(N2CCC(N3CCN(c4cc(F)c([C@H]5CCC(=O)NC5=O)c(F)c4)CC3)CC2)CC1 [Example 12, (R)-3-(4-(4-(1′-(4-((5-chloro-4-((5-(dimethylphosphoryl)-3-fluoro-2-methylquinolin-6-yl)amino)pyrimidin-2-yl)amino)-2-ethyl-5-methoxyphenyl)-[1,4′-bipiperidin]-4-yl)piperazin-1-yl)-2,6-difluorophenyl)piperidine-2,6-dione] | 91
3.8 | 7.6 | 89 | CCc1cc(Nc2ncc(Br)c(Nc3ccc4nc(C)c(F)cc4c3P(C)(C)=O)n2)c(OC)cc1N1CCC2(CCN(C[C@@H]3CCN(c4ccc5c(c4)C(=O)N(C4CCC(=O)NC4=O)C5=O)C3)CC2)CC1 (stereo partly drawn) [Example 49, 5-((S)-3-((9-(4-((5-bromo-4-((5-(dimethylphosphoryl)-3-fluoro-2-methylquinolin-6-yl)amino)pyrimidin-2-yl)amino)-2-ethyl-5-methoxyphenyl)-3,9-diazaspiro[5.5]undecan-3-yl)methyl)pyrrolidin-1-yl)-2-(2,6-dioxopiperidin-3-yl)isoindoline-1,3-dione] | 82
2.5 | 3.1 | 89 | CCc1cc(Nc2ncc(Br)c(Nc3ccc4nc(C)c(F)cc4c3P(C)(C)=O)n2)c(OC)cc1N1CCC2(CC1)CCN(C1CCN(c3cccc4c3n(C)c(=O)n4C3CCC(=O)NC3=O)CC1)CC2 (stereo not drawn) [Example 51, 3-(4-(4-(9-(4-((5-bromo-4-((5-(dimethylphosphoryl)-3-fluoro-2-methylquinolin-6-yl)amino)pyrimidin-2-yl)amino)-2-ethyl-5-methoxyphenyl)-3,9-diazaspiro[5.5]undecan-3-yl)piperidin-1-yl)-3-methyl-2-oxo-2,3-dihydro-1H-benzo[d]imidazol-1-yl)piperidine-2,6-dione] | 77
1.7 | 2.9 | 87 | CCc1cc(Nc2ncc(Br)c(Nc3ccc4nc(C)c(F)cc4c3P(C)(C)=O)n2)c(OC)cc1N1CCC(N2CCC3(CCN(c4cc(F)c([C@H]5CCC(=O)NC5=O)c(F)c4)C3)C2)CC1 (stereo partly drawn) [Example 17, (3R)-3-(4-(7-(1-(4-((5-bromo-4-((5-(dimethylphosphoryl)-3-fluoro-2-methylquinolin-6-yl)amino)pyrimidin-2-yl)amino)-2-ethyl-5-methoxyphenyl)piperidin-4-yl)-2,7-diazaspiro[4.4]nonan-2-yl)-2,6-difluorophenyl)piperidine-2,6-dione] | 92
8.2 | 5.6 | 90 | CCc1cc(Nc2ncc(Br)c(Nc3ccc4nc(C)c(F)cc4c3P(C)(C)=O)n2)c(OC)cc1N1CCC(N2CC(CN3CCC(c4cc(F)c([C@H]5CCC(=O)NC5=O)c(F)c4)CC3)C2)CC1 [Example 56, (R)-3-(4-(1-((1-(1-(4-((5-bromo-4-((5-(dimethylphosphoryl)-3-fluoro-2-methylquinolin-6-yl)amino)pyrimidin-2-yl)amino)-2-ethyl-5-methoxyphenyl)piperidin-4-yl)azetidin-3-yl)methyl)piperidin-4-yl)-2,6-difluorophenyl)piperidine-2,6-dione] | 86
